Experimental data: ChEMBL document CHEMBL5325400 (Eur J Med Chem, 2023)
Activity calls are given as the source filed them. The calls are words filed in the database; no cut-off is given here.

Legend:
SK-OV-3 = assay: Antiproliferative activity against human SK-OV-3 cells assessed as inhibition of cell growth measured after 48 hrs by MTT assay; type: functional, cell-based; settings: SK-OV-3, 48 h
HepG2 = assay: Antiproliferative activity against human HepG2 cells assessed as inhibition of cell growth measured after 48 hrs by MTT assay; type: functional, cell-based; settings: HepG2, 48 h
MDA-MB-231 = assay: Antiproliferative activity against human MDA-MB-231 cells assessed as inhibition of cell growth measured after 48 hrs by MTT assay; type: functional, cell-based; settings: MDA-MB-231, 48 h
A549 [1] = assay: Antiproliferative activity against human A549 cells expressing lentivirus RNAi VTI-96658 assessed as inhibition of cell growth measured after 48 hrs by MTT assay; type: functional, cell-based
A549 [2] = assay: Inhibition of colony formation in human A549 cells incubated for 6 days by crystal violet staining based analysis; type: functional, cell-based; settings: dose 1-20 nM, time 6.0 day
A549 [3] = assay: Inhibition of colony formation in human A549 cells at 20 nM incubated for 6 days by crystal violet staining based analysis; type: functional, cell-based; settings: time 6.0 day
Tubulin (Homo sapiens) = Tubulin (Homo sapiens) (UniProt P68371+Q9H4B7+P0DPH7+P68366+Q13509+Q71U36+P04350+Q3ZCM7+P07437+P68363+Q9BQE3+Q6PEY2+Q13885+Q9BVA1+Q9BUF5); assay: Inhibition of tubulin polymerization in human A549 cells assessed as microtubule network polymerization at 100 nM measured after 18 hrs by Alexa Fluor 488 and DAPI staining based confocal microscopic analysis; type: cell-based
Tubulin = assay: Binding affinity to tubulin (unknown origin) assessed as dissociation constant by SPR analysis; type: protein-complex assay, Homo sapiens
A549 [4] = assay: Induction of cell cycle arrest in human A549 cells assessed as accumulation at G2 phase at 10 nM incubated for 24 hrs by PI staining based flow cytometry (Rvb= 12.49%); type: functional
A549 [5] = assay: Induction of cell cycle arrest in human A549 cells assessed as accumulation at G2 phase at 40 nM incubated for 24 hrs by PI staining based flow cytometry (Rvb= 12.49%); type: functional
A549 [6] = assay: Induction of cell cycle arrest in human A549 cells assessed as accumulation at G1 phase at 20 nM incubated for 24 hrs by PI staining based flow cytometry (Rvb= 65.68%); type: functional
A549 [7] = assay: Induction of cell cycle arrest in human A549 cells assessed as accumulation at S phase at 20 nM incubated for 24 hrs by PI staining based flow cytometry (Rvb= 20.94%); type: functional
A549 [8] = assay: Induction of apoptosis in human A549 cells assessed as early apoptotic cells at 10 nM incubated for 24 hrs by annexin V-FITC/propidium iodide staining based flow cytometry analysis (reference value: 0.84%); type: functional
A549 [9] = assay: Induction of apoptosis in human A549 cells assessed as early apoptotic cells at 40 nM incubated for 24 hrs by annexin V-FITC/propidium iodide staining based flow cytometry analysis (reference value: 0.84%); type: functional
A549 [10] = assay: Induction of apoptosis in human A549 cells assessed as late apoptotic cells at 10 nM incubated for 24 hrs by annexin V-FITC/propidium iodide staining based flow cytometry analysis (reference value: 0.37%); type: functional
A549 [11] = assay: Induction of apoptosis in human A549 cells assessed as late apoptotic cells at 20 nM incubated for 24 hrs by annexin V-FITC/propidium iodide staining based flow cytometry analysis (reference value: 0.37%); type: functional
A549 [12] = assay: Induction of apoptosis in human A549 cells assessed as downregulation of Bcl-2 protein at 10 to 40 nM measured after 48 hrs by Western blot analysis; type: functional, cell-based; settings: dose 10-40 nM
A549 [13] = assay: Antimigratory activity against human A549 cells assessed as inhibition of cell migration at 5 nM and incubated for 12 hrs by scratch wound healing assay (reference value: 29.5 +/- 1.34%); type: functional; parameters: scale not given: the % may be the effect or the level left
A549 [14] = assay: Antimigratory activity against human A549 cells assessed as inhibition of cell migration at 40 nM and incubated for 12 hrs by scratch wound healing assay (reference value: 29.5 +/- 1.34%); type: functional; parameters: scale not given: the % may be the effect or the level left
B16-F10 [15] = assay: Antimigratory activity against mouse B16-F10 cells assessed as inhibition of cell migration at 40 nM and incubated for 12 hrs by scratch wound healing assay (reference value: 81.9 +/- 0.64%); type: functional; parameters: scale not given: the % may be the effect or the level left
A549 [16] = assay: Inhibition of cell migration in human A549 cells assessed as total number of cells migrated at 5 nM incubated for 12 hrs by crystal violet staining based transwell assay (reference value: 724 +/- 16); type: functional
B16-F10 [17] = assay: Inhibition of cell migration in mouse B16-F10 cells assessed as total number of cells migrated at 10 nM incubated for 12 hrs by crystal violet staining based transwell assay (reference value: 692 +/- 11); type: functional
B16-F10 [18] = assay: Inhibition of cell migration in mouse B16-F10 cells assessed as total number of cells migrated at 40 nM incubated for 12 hrs by crystal violet staining based transwell assay (reference value: 692 +/- 11); type: functional
[19] = Half life in Sprague-Dawley rat at 1 mg/kg, iv by LC-MS analysis; type: ADME, organism-based; settings: in vivo
[20] = Toxicity in BALB/c mouse assessed as drug tolerability at 10 mg/kg, ip; type: organism-based; settings: in vivo
A549 [21] = assay: Antitumor activity against human A549 cells xenografted in BALB/c mouse assessed as tumor growth inhibition at 10 mg/kg, ip administered every other day for 25 days; type: functional; settings: A549, 600 h, time 25 day, read-out: TGI
A549 [22] = assay: Antitumor activity against human A549 cells xenografted in BALB/c mouse assessed as tumor volume at 5 mg/kg, ip administered every other day for 25 days; type: functional; settings: time 25 day
A549 [23] = assay: Antitumor activity against human A549 cells xenografted in BALB/c mouse assessed as tumor weight at 10 mg/kg, ip administered every other day for 25 days; type: functional, organism-based; settings: time 25.0 day
A549 [24] = assay: Antitumor activity against human A549 cells xenografted in BALB/c mouse assessed as decrease in CD-31 expression in tumor at 10 mg/kg, ip administered every other day for 25 days by immunohistochemistry analysis; type: functional, organism-based; settings: time 25.0 day
A549 [25] = assay: Antitumor activity against human A549 cells xenografted in BALB/c mouse assessed as downregulation of Bcl-2 expression in tumor at 10 mg/kg, ip administered every other day for 25 days by Western blotting analysis; type: functional, organism-based; settings: time 25.0 day
[26] = Toxicity in BALB/c nude mouse xenografted with human A549 cells assessed as pathological changes in liver at 5 to 10 mg/kg, ip administered every other day for 25 days by hematoxylin and eosin staining based microscopic analysis; type: organism-based; settings: in vivo, 600 h, dose 5-10 mg/kg, time 25 day
[27] = Toxicity in BALB/c nude mouse xenografted with human A549 cells assessed as pathological changes in kidney at 5 to 10 mg/kg, ip administered every other day for 25 days by hematoxylin and eosin staining based microscopic analysis; type: organism-based; settings: in vivo, 600 h, dose 5-10 mg/kg, time 25 day
A549 [28] = assay: Residual cell migration in human A549 cells at 5 nM incubated for 12 hrs by crystal violet staining based transwell assay; settings: A549, 12 h
A549 [29] = assay: Residual cell migration in human A549 cells at 40 nM incubated for 12 hrs by crystal violet staining based transwell assay; settings: A549, 12 h

## COc1cccc(Nc2cc(Nc3cccc(NC(=O)C4CC4)c3)ncn2)c1
SK-OV-3
  IC50: 1.5 nM
HepG2
  IC50: 1.8 nM
MDA-MB-231
  IC50: 4.4 nM
A549 [1]
  Activity: Active
A549 [2]
  inhibition: Dose-Dependent Effect
A549 [3]
  inhibition: Active
Tubulin (Homo sapiens)
  inhibition: Active
Tubulin
  Kd: 43200 nM
A549 [4]
  Activity: 23.37%
A549 [5]
  Activity: 53.15%
A549 [6]
  Activity: 48%
A549 [7]
  Activity: 15.49%
A549 [8]
  Activity: 1.5%
A549 [9]
  Activity: 3.86%
A549 [10]
  Activity: 9.78%
A549 [11]
  Activity: 16.31%
A549 [12]
  Activity: Active
A549 [13]
  Activity: 23.2%
A549 [14]
  Activity: 6.1%
B16-F10 [15]
  Activity: 29.1%
A549 [16]
  Activity: 635
B16-F10 [17]
  Activity: 510
B16-F10 [18]
  Activity: 221
[19]
  t1/2: 13.2 min
[20]
  Activity: Non-Toxic
A549 [21]
  inhibition in vivo at 10 mg/kg: 65.4%
A549 [22]
  Activity: 42.51%
A549 [23]
  Activity: Active
A549 [24]
  Activity: Active
A549 [25]
  Activity: Active
[26]
  Activity: Non-Toxic
[27]
  Activity: Non-Toxic
A549 [28]
  level, % of control at 0.005 µM: 91.5%
A549 [29]
  level, % of control at 0.04 µM: 32.9%
